Measured values: patent publication US10227290B2, “Glycosphingolipids for use in modulating immune responses” (The Regents of the University of California, priority 2012, dated 2019)

What was measured:
[1] = system: Peripheral blood mononuclear cells (PBMCs), CD3+Vα24+ NKT cells; assay: In vitro expansion of CD3+Vα24+ NKT cells from human PBMCs; type: cell-based; conditions: 13 days; 0.1 μg/ml KRN7000, 1 μg/ml α-GalCerBf, 1 μg/ml ceramideBf
Procedure: FIGS. 6A and 6B illustrate that α-GalCerBf binds human CD1d and activates human NKT cells in vitro. FIG. 6A: PBMCs were cultured for 13 days with 0.1 μg/mlKRN7000, 1 μg/ml α-GalCerBf, or 1 μg/ml ceramideBf. Dot plots show CD3^+Vα24^+NKT cells pre- and post-expansion. The data shown are representative of at least two individual experiments performed with six individual donors. FIG. 6B: Human NKT cells were purified after two rounds of expansion with 1 μg/ml α-GalCerBf and restimulated with 10 μg/ml α-GalCerBf in the presence or absence of control Ig or anti-Cd1d blocking antibodies. IFN-γ secretion was measured in supernatants 40-48 hours later. Data are representative of two independent experiments.
The capability of α-GalCerBf to stimulate freshly isolated NKT cells was determined. A first experiment was performed to determine whether Vα24^+ cells could be expanded in vitro with α-GalCerBf as previously described for KRN7000 (see, e.g., Rogers et al., J. Immunol. Meth. 285:197-214 (2004)). Peripheral blood mononuclear cells (PBMCs) were cultured with 0.1 μg/ml KRN7000, 1 μg/ml α-GalCerBf, or 1 μg/ml ceramideBf for 13 days. The presence of CD3 Vα24^+ cells was then assessed by flow cytometry. At least two individual experiments performed with six individual donors. […] IFN-γ secretion was measured in supernatants 40-48 hours later.

[2] = system: cyclophosphamide (CY) induced diabetes; assay: Cyclophosphamide-induced diabetes mouse model; type: in vivo, NOD mice; conditions: 25 μg intraperitoneally on days 0, 2, 4, 6, 8; diabetic = blood glucose above 250 mg/dL; 100% of DMSO controls diabetic
Procedure: FIG. 8 presents a graph illustrating the percent of animals that developed diabetes in a cyclophosphamide-induced diabetes mouse model. Groups of animals received DMSO only, α-GalCerBf, or KRN7000. Number of animals is represented by n. Mice were considered diabetic when blood glucose was above 250 mg/dL. Blood glucose levels were measured at the time point shown. Data are representative of three independent experiments. KRN7000 prevents cyclophosphamide (CY) induced diabetes in a Non-Obese Diabetic (NOD) mouse model (see, e.g., Sharif et al., Nat. Med. 7:1057-62 (2001)). Prevention of diabetes in this model is believed to be associated with suppression of T and B cell responses to islet antigens as well as a polarization towards TH2-like responses (see Sharif, supra). This example describes the effect of α-GalCerBf in the CY induced diabetes mouse model. Groups of twelve-week old NOD female mice were given 300 mg/kg cyclophosphamide intraperitoneally on day 0. Groups of mice received DMSO (n=4), or 25 μg α-GalCerBf (n=7) or 5 μg KRN7000 (n=3) diluted in DMSO intraperitoneally on days 0, 2, 4, 6, and 8. Diabetes progression was monitored by measuring blood glucose at each time point (see FIG. 8). […] Kaplan-Meier survival curves were determined by a log-rank test using Prism software.

liver NKT cells = assay: In vivo activation of NKT cells by transfer of sphingolipid-pulsed BMDCs; parameters: species or system C57BL/6 mice; conditions: without re-stimulation; BMDCs pulsed with α-GalCerBf
Procedure: FIGS. 7A-7F illustrate that α-GalCerBf activates NKT cells in vivo. Bone marrow-derived dendritic cells (BMDCs) were pulsed in vitro with LPS only or LPS+α-GalCerBf for 24 hr. Then 0.4×10^6 cells were treated with control Ig or anti-CD1d blocking antibody and then transferred to WT mice. Liver mononuclear cells were analyzed 16-18 hr later. Data shown were pooled from three independent experiments. FIGS. 7A-7C: Expression of CD25 and CD69 on gated CD3^+tetramer^+ cells. Representative flow cytometry plots and pooled data showing fold change of CD25 and CD69 surface expression compared to NKT cells isolated from mice transferred with LPS-pulsed BMDCs. FIGS. 7D and 7E provide representative flow cytometry plots and pooled data, respectively, of intracellular IFN-γ expression on gated CD3^+ tetramer^+ cells. FIG. 7F presents serum IFN-γ levels. […]
Mice were sacrificed 16-18 hr after transfer of 0.4×10^6 mature CD86^hiMHCII^hi BMDCs. […] All isolations were performed in the presence of brefeldin A. After cell surface staining, cells were fixed in Cytofix/Cytoperm (BD Biosciences) according to the manufacturer's instructions and stained for intracellular cytokines Serum IFN-γ was measured by ELISA. […]
As described herein, because α-GalCerBf is an agonist of NKT cell hybridomas and freshly isolated NKT cells in culture, the capability of α-GalCerBf to activate NKT cells in vivo was determined. […]

| Compound | Expansion of a population of CD3+Vα24+ cells [1] | Mice in which diabetes development was prevented [2] | Liver NKT cells expressing IFN-γ (liver NKT cells) |
| --- | --- | --- | --- |
| CC(C)CCCCCCCCCCC[C@@H](O)CC(=O)N[C@@H](CO)[C@H](O)CCCCCCCCCCCC(C)C [ceramideBf] | did not show an expansion | – | – |
| CC(C)CCCCCCCCCCC[C@@H](O)CC(=O)N[C@@H](CO[C@H]1OC(CO)[C@H](O)[C@H](O)C1O)[C@H](O)CCCCCCCCCCCC(C)C (stereo partly drawn) [α-GalCerBf] | – | more than 40% | 15% |
